Reference: ChEMBL document CHEMBL1140704, “Further structure-activity relationships study of hybrid 7-{[2-(4-phenylpiperazin-1-yl)ethyl]propylamino}-5,6,7,8-tetrahydronaphthalen-2-ol analogues: identification of a high-affinity D3-preferring agonist with potent in vivo activity with long duration of action” (J Med Chem, 2008)
Active and inactive are the calls of the source. The rule behind the calls is not given here.

How the values were obtained:
D(2) dopamine receptor [1] = molecular target: T1, D(2) dopamine receptor (Homo sapiens, UniProt P14416); experiment: biochemical
T1 sequence (P14416 whole entry): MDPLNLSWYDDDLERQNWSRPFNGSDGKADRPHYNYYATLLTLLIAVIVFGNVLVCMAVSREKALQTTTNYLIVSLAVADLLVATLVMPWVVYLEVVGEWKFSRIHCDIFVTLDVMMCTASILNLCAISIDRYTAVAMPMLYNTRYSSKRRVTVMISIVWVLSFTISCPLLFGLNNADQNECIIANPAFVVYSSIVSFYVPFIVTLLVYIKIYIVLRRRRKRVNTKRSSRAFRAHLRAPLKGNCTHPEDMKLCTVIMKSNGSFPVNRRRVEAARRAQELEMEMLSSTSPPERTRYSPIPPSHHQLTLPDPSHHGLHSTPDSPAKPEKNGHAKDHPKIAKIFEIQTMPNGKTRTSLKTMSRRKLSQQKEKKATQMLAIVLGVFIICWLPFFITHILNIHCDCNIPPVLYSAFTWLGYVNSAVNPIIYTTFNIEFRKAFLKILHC
Description: Displacement of [3H]spiperone from human cloned dopamine D2L receptor expressed in HEK293 cells

D(3) dopamine receptor [2] = molecular target: T2, D(3) dopamine receptor (Homo sapiens, UniProt P35462); experiment: biochemical
T2 sequence (P35462 whole entry): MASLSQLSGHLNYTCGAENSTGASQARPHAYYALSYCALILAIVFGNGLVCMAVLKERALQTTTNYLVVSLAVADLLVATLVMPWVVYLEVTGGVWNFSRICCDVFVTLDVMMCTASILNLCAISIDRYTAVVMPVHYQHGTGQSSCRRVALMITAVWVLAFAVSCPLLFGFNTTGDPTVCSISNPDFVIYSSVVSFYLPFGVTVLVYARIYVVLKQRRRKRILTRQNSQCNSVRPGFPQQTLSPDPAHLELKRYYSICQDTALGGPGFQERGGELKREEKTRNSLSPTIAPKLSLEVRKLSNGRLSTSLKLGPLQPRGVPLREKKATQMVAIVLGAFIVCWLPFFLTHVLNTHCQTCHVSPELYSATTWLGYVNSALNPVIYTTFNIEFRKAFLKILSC
Description: Displacement of [3H]spiperone from human cloned dopamine D3 receptor expressed in HEK293 cells

Homo sapiens = species on record: Homo sapiens; experiment: Selectivity for human D3 receptor over human D2L receptor
D(2) dopamine receptor [3] = molecular target: T1, D(2) dopamine receptor; experiment: Agonist activity at human cloned dopamine D2L receptor expressed in CHO cells assessed as stimulation of [35S]GTPgammaS binding; assay type: functional, cell-based
D(3) dopamine receptor [4] = molecular target: T2, D(3) dopamine receptor
Description: Agonist activity at human cloned dopamine D3 receptor expressed in AtT-20 cells assessed as stimulation of [35S]GTP-gamma-S binding

Rattus norvegicus [5] = experiment: Effect on rotational activity in 6-OH-DA-Lesioned rat assessed as number of rotations at 2.87 mg/kg, ip after 12 hrs; assay type: functional; settings: route intraperitoneal
Rattus norvegicus [6] = experiment: Effect on rotational activity in 6-OH-DA-Lesioned rat assessed as number of rotations at 0.53 mg/kg, ip after 9 hrs; assay type: functional; settings: route intraperitoneal
Rattus norvegicus [7] = experiment: Effect on rotational activity in 6-OH-DA-Lesioned rat assessed as number of rotations at 2.51 mg/kg, ip; assay type: functional, organism-based; parameters: dose 2.51 mg/kg

| Ki (D(2) dopamine receptor [1]) [nM] | Ki (D(3) dopamine receptor [2]) [nM] | Ratio Ki (Homo sapiens) | Compound | further results |
| --- | --- | --- | --- | --- |
| 19.3 | 0.74 | – | CCCN(CCCCN1CCN(c2ccccc2)CC1)C1CCc2ccc(O)cc2C1 (stereo in doubt; (+)-13) [listing 1 of 2 here] | – |
| – | – | 15.9 | CCCN(CCCCN1CCN(c2ccccc2)CC1)C1CCc2ccc(O)cc2C1 (stereo in doubt; (-)-13) [listing 1 of 2 here] | – |
| 638 | 22.2 | – | CCCN(CCN1CCN(c2ccccc2)CC1)C1CCc2ccc(N)cc2C1 (stereo not given) | – |
| 14.6 | 0.45 | 32.2 | CCCN(CCN1CCN(c2cccc(Cl)c2Cl)CC1)C1CCc2c(O)cccc2C1 (racemic) | – |
| – | – | – | CCCN(CCN1CCN(c2ccccc2)CC1)C1CCc2c(O)cccc2C1 (stereo in doubt; (-)-25) | Activity (Rattus norvegicus [5]): 4319; Activity (Rattus norvegicus [6]): 3609 |
| 19.4 | 1.22 | – | CCCN(CCCCN1CCN(c2ccccc2)CC1)C1CCc2ccc(O)cc2C1 (stereo in doubt; (-)-13) [listing 2 of 2 here] | – |
| 167 | 10.3 | 16.2 | CCCN(CCCN1CCN(c2ccccc2)CC1)C1CCc2ccc(O)cc2C1 (stereo not given) | – |
| 21.7 | 2.89 | 7.51 | CCCN(CCCCN1CCN(c2ccccc2)CC1)C1CCc2cc(O)c(O)cc2C1 (stereo not given) | – |
| – | – | 25.8 | CCCN(CCCCN1CCN(c2ccccc2)CC1)C1CCc2ccc(O)cc2C1 (stereo in doubt; (+)-13) [listing 2 of 2 here] | – |
| 70.3 | 1.39 | 50.6 | CCCN(CCN1CCN(c2ccccc2)CC1)C1CCc2cc(O)c(O)cc2C1 (stereo not given) | – |
| 142 | 1.56 | 91 | CCCN(CCN1CCN(c2ccccc2)CC1)C1CCc2ccc(O)cc2C1 (stereo not given) | EC50 (D(2) dopamine receptor [3]): 12.2 nM; EC50 (D(3) dopamine receptor [4]): 0.69 nM; Ratio EC50 (Homo sapiens): 17.6; Activity (Rattus norvegicus [7]): Active |
| 649 | 11.2 | 57.9 | CCCN(CCN1CCN(c2ccccc2)CC1)C1CCc2cc(O)ccc2C1 (stereo not given) | – |

| Compound | Ki (D(2) dopamine receptor [1]) [nM] | Ki (D(3) dopamine receptor [2]) [nM] | Ratio Ki (Homo sapiens) | further results |
| --- | --- | --- | --- | --- |
| CCCN(CCN1CCN(c2ccccc2)CC1)C1CCc2ccc3c(c2C1)CC(=O)N3 (stereo not given) | 90.6 | 10.9 | 8.27 | – |
| CCCN(CCN1CCN(c2ccccc2OC)CC1)C1CCc2c(O)cccc2C1 (single isomer, unassigned; (-)) [listing 1 of 2 here] | 9.56 | 0.46 | – | EC50 (D(2) dopamine receptor [3]): 1.56 nM; EC50 (D(3) dopamine receptor [4]): 0.08 nM |
| CCCN(CCN1CCN(c2ccccc2OC)CC1)C1CCc2c(O)cccc2C1 (single isomer, unassigned; (+)) [listing 1 of 2 here] | 88.7 | 18.8 | – | – |
| CCCN(CCN1CCN(c2ccccc2OC)CC1)C1CCc2c(O)cccc2C1 (racemic) [listing 1 of 2 here] | – | – | 12.8 | – |
| CCCN(CCN1CCN(c2ccccc2OC)CC1)C1CCc2c(O)cccc2C1 (single isomer, unassigned; (-)) [listing 2 of 2 here] | – | – | 20.9 | Ratio EC50 (Homo sapiens): 19.4 |
| Oc1ccc2c(c1)CC(N(CCc1cccs1)CCN1CCN(c3ccccc3)CC1)CC2 (stereo not given) | 24.6 | 23.9 | 1.03 | – |
| CCCN(CCN1CCN(c2ccccc2OC)CC1)C1CCc2c(O)cccc2C1 (racemic) [listing 2 of 2 here] | 35.8 | 2.8 | – | – |
| CCCN(CCN1CCN(c2ccccc2OC)CC1)C1CCc2c(O)cccc2C1 (single isomer, unassigned; (+)) [listing 2 of 2 here] | – | – | 4.72 | – |
